Experimental data taken from article PMC10945332, “Precision peptide theranostics: developing N- to C-terminus optimized theranostics targeting cholecystokinin-2 receptor” (Theranostics, 2024).
Read-outs that look alike come from different tables or passages of the source. Where a SMILES comes first, the peptide text is derived from it. [ ]: non-standard residue; d: D form. The star is where a group is joined. DOTA = O=C(O)CN1CCN(CC(=O)O)CCN(CC(=O)*)CCN(CC(=O)O)CC1; NMe1Nal = CN[C@@H](Cc1cccc2ccccc12)C(=O)O; NMeNle = CCCC[C@H](NC)C(=O)O; Sar = CNCC(=O)O

What was measured:
[1] = assay type: physicochemical
Description: Lipophilicity, expressed as the octanol-water partition coefficient, constitutes an important property in drug action, influencing both pharmacokinetic and pharmacodynamics processes. The distribution coefficient (LogD7.4) of [^68Ga]Ga-DOTA-peptides was determined by measuring radioactivity distribution in the aqueous phase (phosphate buffer pH7.4) and the organic phase (n-octanol). […]
To determine the distribution coefficient (logD 7.4), 68Ga radiolabeled peptides [68Ga]Ga-DOTA-GA4, [68Ga]Ga-DOTA-GA7, and [68Ga]Ga-DOTA-GA11–GA13 were diluted to approximately 20 pmol/mL in PBS (pH 7.4) and an equal volume of n-octanol was added. The mixture was vortexed vigorously for 10 cycles of 1 min at room temperature before being centrifuged for 6 min to separate the two phases. Equal volumes from each phase were aliquoted into individual counting tubes and analysed for 1 min using the Perkin Elmer 2480 Wizard2™ gamma counter (PerkinElmer, Massachusetts, USA). The distribution coefficient was calculated using the following equation LogD = […]. […]

[2] = in vivo; conditions: female, NSG, mouse, iv, total radioactivity; for SUV at 2 h: SUVmax
Description: (§1) In order to assess these promising ligands as potential theranostics, the library of [^68Ga]Ga-DOTA-peptides was evaluated using static small animal PET imaging and quantifying biodistribution studies. This study was performed to investigate tumor uptake as well as the accumulation of radioligands in other organs. Mice bearing A431-CCK2R tumors were imaged at 1- and 2 hours post tracer injection, and tracer biodistribution was evaluated at the 1 hour and 2.5 hour time points to quantify tumor uptake and retention. […]
(§2) Small Animal PET Imaging and Biodistribution Studies
(§3) Female NSG mice (age 11-14 weeks) were sourced from Animal Resources Centre, (Canning Vale, Western Australia) and were inoculated subcutaneously on the right flank with 1-3 x 106 […]
(§4) A431-CCK2R cells in PBS:Matrigel (1:1). […]
(§5) Mice were assigned to imaging and/or biodistribution groups (tumour volumes: 119-327 mm3).
(§6) The respective 68Ga labelled tracer (1.63–3.81 MBq, 170µL, 13.7–14.2 pmoles) containing vehicle solution (75µL, DMSO:Tween 80: water, 2:2:6 v/v/v) was then administered to mice intravenously via tail vein injection. Three mice were euthanized for biodistribution 1 hour post injection (n=3) and selected tissues were excised, weighed, and counted using a Capintec (Captus 4000e) gamma counter. Three mice were anaesthetised using 1.5% isoflurane and imaged at 1 hour (n=3) and 2 hours (n=3) with a G8 Small Animal PET/CT scanner (Perkin […]
(§7) Elmer/Sofie Biosciences). A 10 min static PET scan was acquired, followed immediately by a CT scan (Supplementary Data, pS51–S55). PET images were acquired using the G8 acquisition engine software and reconstructed using a 3D maximal likelihood and expectation maximization (ML-EM) algorithm. PET images were analysed using VivoQuant software, version 3.0 (inviCRO Imaging Services and Software) to quantify maximum standardised uptake value in regions of interest (SUVmax). Background regions for imaging experiments were calculated by quantitating mean standardised uptake value (SUVmean) of the abdomen and gut region. The region of interest was selected due to low uptake in abdomen/gut during imaging. After imaging the 2-hour time point, mice organs were harvested for biodistribution […]
(§8) For blocking CCK2R binding a solution of N-[(3R)-2,3-Dihydro-1-[2-(2-methylphenyl)-2-oxoethyl]-2-oxo-5-phenyl-1H-1,4-benzodiazepin-3-yl]-N′-(3-methylphenyl)-urea (YM022; Sigma Aldrich) was used. YM022 (75µL of a 1 mg/ml solution constituting DMSO:Tween 80: water, 2:2:6 v/v/v) was added to the respective 68Ga labelled tracer (1.41–3.61 MBq, 100 µL, 13.7–14.2 pmoles) and this mixture ([…]) was administered in three mice intravenously via tail vein injection and organs harvested at 1 hour post injection for biodistribution analysis, as above.
(§9) All animal experiments were performed with the approval of the Peter MacCallum Cancer Centre Animal Experimentation Ethics Committee and in accordance with the Australian code for the care and use of animals for scientific purposes, 8th Edition, 2013 (AEEC Approval

[3] = assay type: in vitro ADME, mouse
Description: Metabolic stability is an important determinant of the efficacy of peptide radiopharmaceuticals and their progression as promising theranostic candidates. In vitro, metabolic degradation through hepatic and renal enzymes can be assessed by utilizing liver and kidney tissue homogenates. Radiolabeled peptides [^68Ga]Ga-DOTA-GA4, and D-Ala substituted variants [^68Ga]Ga-DOTA-GA7, [^68Ga]Ga-DOTA-GA11-GA13 were incubated in liver and kidney mouse homogenates, in human serum at 37°C, and in HEPES buffer (pH 7.4) as a negative control. Following a time course experiment, the metabolites were analyzed using HPLC to quantify the % breakdown of the respective parent peptide. […]
To assess the stability of 68Ga radiolabeled peptides against enzymatic degradation, duplicate samples (750-900 pmol/mL, 2-5MBq) were incubated at 37 ℃ with pooled human serum, 15% […]
mouse kidney homogenate, 30% mouse liver homogenate or 20 mM HEPES, pH 7.3 (control).
Human blood was collected, and serum prepared using SSTII advance vacutainer tubes according to the manufacturer’s instructions (Becton Dickinson, New Jersey, USA). Mouse kidney and liver homogenates were prepared by washing the tissues in ice-cold HEPES buffer, pH 7.3 and placing them in pre-chilled tubes containing HEPES buffer and 2.38 mm metal beads (Mo-Bio Laboratories, Hilden, Germany). Tissues were homogenised using the PowerLyzer24 homogeniser (Qiagen, Hilden, Germany) according to the manufacturer’s instructions. 68Ga radiolabeled peptides were then incubated with the various lysates at 37 ℃ and samples were collected at 15, 30, 60 and 90 min. Reactions were terminated by addition of an equal volume of acetonitrile and centrifugation for 2 min at 15,000 rpm. Supernatants were diluted in water before being analysed by HPLC using a Kinetex C18 XB column (5µm

[4] = tested on: AR42J xenografts; conditions: cited from earlier work
[5] = mouse, in vivo
Description: as §1, §2, §3, §4, §5, §6, §7, §8, §9

[6] = tested on: A431-CCK2R tumors; experiment: in vivo; conditions: female, NSG, mouse, iv, 1 h
Description: as §1, §2, §3, §4, §5, §6, §7, §8, §9

[7] = tested on: A431-CCK2R tumors; conditions: A431-CCK2R/NSG mouse model; 1 hour post-injection; data shown for [177Lu]Lu-CP04; cited from earlier work
[8] = biological target: T1, human CCK2R (Homo sapiens, UniProt P32239); experiment: Competitive binding against [177Lu]Lu-DOTA-CP04 in A431-CCK2R cells
T1 construct: stably transfected to over-express the human full-length CCK2R (A431-CCK2R); expressed in transfected cells
T1 sequence (P32239 1-447): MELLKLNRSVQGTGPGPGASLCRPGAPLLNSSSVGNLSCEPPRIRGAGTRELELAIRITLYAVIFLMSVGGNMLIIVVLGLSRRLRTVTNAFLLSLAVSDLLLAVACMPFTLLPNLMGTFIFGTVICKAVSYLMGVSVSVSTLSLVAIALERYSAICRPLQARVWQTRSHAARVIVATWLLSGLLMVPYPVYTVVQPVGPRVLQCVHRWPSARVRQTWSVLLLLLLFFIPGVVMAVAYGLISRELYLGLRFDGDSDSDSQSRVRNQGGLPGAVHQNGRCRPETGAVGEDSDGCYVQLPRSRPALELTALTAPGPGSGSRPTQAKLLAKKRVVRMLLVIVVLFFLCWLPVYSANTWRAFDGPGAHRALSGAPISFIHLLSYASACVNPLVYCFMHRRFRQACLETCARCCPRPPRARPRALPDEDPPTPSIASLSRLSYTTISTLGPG
Description: Materials and Methods: Biology […]
In Vitro CCK2R-Ligand Competitive Binding Assays
All CCK2R binding experiments were conducted using A431 (human epidermoid carcinoma) […]
cells stably transfected to over-express the human full-length CCK2R (A431-CCK2R) (gifted […]
by Dr. Elisabeth von Guggenberg, Medizinische Universität Innsbruck).[41] As a negative […]
control, A431 cells stably transfected with an empty vector were analysed simultaneously […]
(A431-EV). All A431 cells were maintained in DMEM (Gibco, Australia) media supplemented […]
with 10% foetal calf serum and 250 µg/mL G418 as described previously.[32]
The affinity of all peptides for the CCK2R was evaluated using competitive binding assays […]
Briefly, 48 hours before the experiment […]
cells were plated at a density of 300,000 cells per well in 12 well plates. On the day of the […]
experiment, linear peptides were diluted in DMEM supplemented with 1% foetal calf serum to […]
DOTA-CP04 was added to each dilution. Cells were washed twice in ice-cold binding buffer […]
(DMEM supplemented with 1% foetal calf serum) and resuspended in 1 mL of the pre-prepared […]
peptide mix before being incubated at room temperature for 1 hour. Post-incubation the media […]
was removed and kept for analysis (unbound fraction) and the cells were washed twice in ice- […]
cold PBS which was pooled with the unbound fraction. Finally, 1 M NaOH (150µL) was added […]
to the wells and allowed to incubate for 5 min before lysates were collected (bound fraction).
A small volume of lysate was kept aside to determine protein concentration using the Pierce® BCA protein assay kit (Thermo Fisher, Australia). All samples were analysed using the Perkin […]
normalised according to protein concentration. Half maximal inhibitory concentration (IC50) was determined using nonlinear regression calculated using Gr aphPad Prism Software (GraphPad Software, California, USA). […]

[9] = tested on: CCK2R; set-up: method as in PMID 33826325; conditions: peptide with gallium coordinated DOTA at the N-terminus; previously assessed; read-out: affinity for CCK2R; cited from earlier work
[10] = 3 mg/kg, Uptake in A431-CCK2R Tumors, 1 hr Blocked
[11] = Uptake in A431-CCK2R Tumors, 1 hr

logD [1]	tissue to tissue ratio at 1 h [2]	SUV at 2 h [2] [SUV]	metabolites in kidney homogenates [3]	metabolites in liver homogenates [3]	tissue uptake at 1 h [5, 10] [%ID/g]	tissue uptake at 1 h [5, 11] [%ID/g]	tissue uptake at 2.5 h ([5]; Uptake in A431-CCK2R Tumors) [%ID/g]	tissue uptake at 1 h ([5]; Uptake in Organs: Blood) [%ID/g]	tissue uptake at 1 h ([5]; Uptake in Organs: Heart) [%ID/g]	tissue uptake at 1 h ([5]; Uptake in Organs: Kidneys) [%ID/g]	tissue uptake at 1 h ([5]; Uptake in Organs: Liver) [%ID/g]	tissue uptake at 1 h ([5]; Uptake in Organs: Lungs) [%ID/g]	tissue uptake at 1 h ([5]; Uptake in Organs: Muscle) [%ID/g]	tissue uptake at 1 h ([5]; Uptake in Organs: Spleen) [%ID/g]	tissue uptake at 1 h ([5]; Uptake in Organs: Stomach) [%ID/g]	Structure (SMILES)	also measured
-2.97 ± 0.13	11.4 ± 0.9	0.38	no observable metabolites detected	no observable metabolites detected	2.05 ± 0.14	8.77 ± 1.21	7.54 ± 0.5	0.92 ± 0.05	0.45 ± 0.03	20.3 ± 0.89	0.51 ± 0.01	0.92 ± 0.04	0.14 ± 0.01	0.62 ± 0.14	2.37 ± 0.12	CCCC[C@@H](C(=O)N[C@@H](CC(=O)O)C(=O)N(C)[C@@H](Cc1cccc2ccccc12)C(N)=O)N(C)C(=O)[C@H](Cc1c[nH]c2ccccc12)NC(=O)CN(C)C(=O)[C@H](Cc1ccc(O)cc1)NC(=O)[C@H](C)NC(=O)[C@@H](CCC(=O)O)NC(=O)[C@@H](CCC(=O)O)NC(=O)[C@@H](CCC(=O)O)NC(=O)[C@@H](CCC(=O)O)NC(=O)[C@@H](CCC(=O)O)NC(=O)[C@@H](CCC(=O)O)NC(=O)CN1CCN(CC(=O)O)CCN(CC(=O)O)CCN(CC(=O)O)CC1 [[^68Ga]Ga-DOTA-GA4, metal not drawn] ({DOTA}-[dE][dE][dE][dE][dE][dE]AY[Sar]W[NMeNle]D[NMe1Nal]-NH2)	Tumor uptake ([4]; mouse, in vivo, 1 h): 31.1 ± 5.3 % ID/g
-2.59 ± 0.02	19.3 ± 1.49	0.32	no observable metabolites detected	no observable metabolites detected	2.53 ± 0.17	9.68 ± 1.02	11.4 ± 0.17	0.83 ± 0.07	0.4 ± 0.03	12.3 ± 0.63	0.44 ± 0.03	0.85 ± 0.11	0.16 ± 0.03	0.43 ± 0.13	1.81 ± 0.12	CCCC[C@@H](C(=O)N[C@@H](CC(=O)O)C(=O)N(C)[C@@H](Cc1cccc2ccccc12)C(N)=O)N(C)C(=O)[C@H](Cc1c[nH]c2ccccc12)NC(=O)CN(C)C(=O)[C@H](Cc1ccc(O)cc1)NC(=O)[C@H](C)NC(=O)[C@@H](CCC(=O)O)NC(=O)[C@@H](CCC(=O)O)NC(=O)[C@@H](CCC(=O)O)NC(=O)[C@@H](C)NC(=O)[C@@H](CCC(=O)O)NC(=O)[C@@H](CCC(=O)O)NC(=O)CN1CCN(CC(=O)O)CCN(CC(=O)O)CCN(CC(=O)O)CC1 [[^68Ga]Ga-DOTA-GA13, metal not drawn] ({DOTA}-[dE][dE][dA][dE][dE][dE]AY[Sar]W[NMeNle]D[NMe1Nal]-NH2)	SUVmax [6]: 1.86
–	–	–	–	–	–	–	–	–	–	–	–	–	–	–	–	CSCC[C@H](NC(=O)[C@H](Cc1c[nH]c2ccccc12)NC(=O)CNC(=O)[C@H](Cc1ccc(O)cc1)NC(=O)[C@H](C)NC(=O)[C@@H](CCC(=O)O)NC(=O)[C@@H](CCC(=O)O)NC(=O)[C@@H](CCC(=O)O)NC(=O)[C@@H](CCC(=O)O)NC(=O)[C@@H](CCC(=O)O)NC(=O)[C@H](N)CCC(=O)O)C(=O)N[C@@H](CC(=O)O)C(=O)N[C@@H](Cc1ccccc1)C(N)=O [CP04, reference compound]	Tumor uptake [7]: 2.5 ± 0.3 [62] % ID/g; Tumor uptake ([4]; AR42J xenografts, [68Ga]Ga labeled, 1 hour post-injection): 5.5 ± 0.8 [34] % ID/g; IC50 [8]: 2.33 nM; fold decrease in affinity for CCK2R without gallium coordinated DOTA at the N-terminus ([8]; linear peptide vs its Ga-DOTA form): greater than 3 fold; IC50 [9]: 0.76 nM
